“And” between values parts separate entries of the source, which are not always exact repeats. Equal values may be shown once.
target: Cannabinoid receptor 1 (Rattus norvegicus, UniProt P20272)
Sequence (P20272 whole entry): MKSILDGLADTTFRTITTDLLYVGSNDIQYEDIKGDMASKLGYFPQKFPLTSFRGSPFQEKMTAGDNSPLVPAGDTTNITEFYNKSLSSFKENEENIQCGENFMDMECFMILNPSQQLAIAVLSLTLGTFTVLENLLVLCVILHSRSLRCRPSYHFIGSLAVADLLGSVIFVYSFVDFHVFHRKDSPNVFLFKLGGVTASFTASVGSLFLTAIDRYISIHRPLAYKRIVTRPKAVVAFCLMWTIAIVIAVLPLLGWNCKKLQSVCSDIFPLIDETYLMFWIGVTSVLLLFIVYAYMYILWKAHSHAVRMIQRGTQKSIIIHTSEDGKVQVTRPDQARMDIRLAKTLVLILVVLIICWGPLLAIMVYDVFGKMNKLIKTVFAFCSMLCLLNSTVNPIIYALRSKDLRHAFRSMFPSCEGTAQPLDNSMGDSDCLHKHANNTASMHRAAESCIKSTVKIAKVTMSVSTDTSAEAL

CCCCCc1cc(OCCCCN)c2c(c1)OC(C)(C)[C@@H]1CCC(C)=C[C@@H]21 [THC, 1-O-(4-Aminobutyl)] and CCCCCc1cc(OCCCN)c2c(c1)OC(C)(C)[C@@H]1CCC(C)=C[C@@H]21 [THC, 1-O-(3-Aminopropyl)] cannot be ordered by Ki: greater than 10000 nM for the first, greater than 10000 nM for the second.

Compared with CCCCCc1cc(OCCCCCCN)c2c(c1)OC(C)(C)[C@@H]1CCC(C)=C[C@@H]21 [THC, 1-O-(6-Aminohexyl)], CCCCCc1cc(OC)c2c(c1)OC(C)(C)[C@@H]1CCC(C)=C[C@@H]21 [THC, 1-O-methyl-delta 9] is higher in Ki: 1730 nM for the first, greater than 10000 nM for the second. The first binds more tightly here.

First: CC1(C)Oc2cc(CCCCC[N+](C)(C)C)cc(O)c2[C@@H]2C=C(CO)CC[C@H]21 [THC, 11-OH-5'-TMA]
Second: CCCCCc1cc(O)c2c(c1)OC(C)(C)[C@@H]1CCC(CO)=C[C@@H]21 [THC, 11-OH-delta 9]
The Ki of the first is 55-fold higher: 2110 nM for the first, 38.4 nM for the second. The second binds more tightly here.

Going from CCCCCCC(C)(C)c1ccc([C@H]2CCC[C@@H](O)C2)c(O)c1 [CP-47,497] to CCCCCCCC(C)(C)c1ccc([C@H]2CCC[C@@H](O)C2)c(O)c1 [Bicyclic analogs VII], the Ki falls from 735 nM to 4.73 nM (160-fold). The second binds more tightly here.

Compared with OCCC[C@@H]1CC[C@@H](O)C[C@H]1c1ccccc1O [Bicyclic analogs XIII], CCCCCCC(C)(C)c1ccc([C@@H]2C[C@H](O)CC[C@H]2CCCCO)c(O)c1 [Bicyclic analogs XVI] is lower in Ki: greater than 10000 nM for the first, 1.55 nM for the second. The second binds more tightly here.

CC1=C[C@H]2c3c(O)cc(CCCCCBr)cc3OC(C)(C)[C@@H]2CC1 [THC, 5'-Br] and CC1=C[C@H]2c3c(O)cc(CCCCCI)cc3OC(C)(C)[C@@H]2CC1 [THC, 5'-I] are within 1.5-fold of each other in Ki: 7.63 nM for the first, 7.77 nM for the second.

First: CCCCCCC(C)(C)c1cc(O)c2c(c1)OC(C)(C)[C@@H]1CCC(CO)=CC21 (stereo partly specified) [(3-(1,1-Dimethyl-heptyl)-9-hydroxymethyl-6,6-dimethyl-6a,7,8,10a-tetrahydro-6H-benzo[c]chromen-1-ol (HU210)]
Second: CCCCCCC(C)(C)c1cc(O)c2c(c1)OC(C)(C)[C@H]1CCC(CO)=C[C@H]21 [THC-DMH, (-)-11-OH]
The Ki of the first is 180-fold higher: 126 nM for the first, 0.72 nM for the second. The second binds more tightly here.

Going from CCCCCc1cc(O)c2c(c1)OC(C)(C)[C@@H]1CCC(C(=O)O)=C[C@@H]21 [THC, 9-Nor-9-carboxy-delta 9] to CC1=C[C@H]2c3c(O)cc(CCCCCO)cc3OC(C)(C)[C@@H]2CC1 [THC, 5'-OH], the Ki falls from greater than 10000 nM to 87.6 nM. The second binds more tightly here.

Compared with CCCCCc1cc(O)c2c(c1)OC(C)(C)[C@@H]1C[C@@H](O)C(C)=C[C@@H]21 [THC, 8 beta-OH], CCCCCc1cc(O)c2c(c1)OC(C)(C)[C@@H]1CCC(C)=C(CO)[C@@H]21 [THC, O, 10-Methano] is higher in Ki: 820 nM for the first, greater than 10000 nM for the second.

CCCCCc1cc(OC(N)=O)c2c(c1)OC(C)(C)[C@@H]1CCC(C)=C[C@@H]21 [THC, 1-O-Carbamoyl] and CCCCCc1cc(OC(C)C)c2c(c1)OC(C)(C)[C@@H]1CCC(C)=C[C@@H]21 [THC, O, 2-propano] cannot be ordered by Ki: greater than 10000 nM for the first, greater than 10000 nM for the second.

CCCCCC(C)C(C)c1cc(O)c2c(c1)OC(C)(C)C1=C2CC(C)CC1 (stereo unspecified) [DMHP, 1', 2'] and CCCCC[C@@H](C)[C@H](C)c1cc(O)c2c(c1)OC(C)(C)[C@@H]1CC=C(C)C[C@@H]21 are within 1.5-fold of each other in Ki: 1.56 nM for the first, 1.59 nM for the second.

Going from CCCCCC(C)(C)c1ccc([C@H]2CCC[C@@H](O)C2)c(O)c1 [Bicyclic analogs V] to CCCCC(C)(C)c1ccc([C@H]2CCC[C@@H](O)C2)c(O)c1 [Bicyclic analogs IV], the Ki falls from 126 nM to 9.54 nM (13-fold).

First: C=C1CC[C@@H]2[C@@H](C1)c1c(OC)cc(CCC(CC)CCC)cc1OC2(C)C (stereo partly specified) [THC, 1-O-Methyl-3-(norpentyl)-3-propyl]
Second: C=C1CC[C@@H]2[C@@H](C1)c1c(O)cc(CCC(CC)CCC)cc1OC2(C)C (stereo partly specified) [THC, 3-(Norpentyl)-3-propyl]
The Ki of the first is higher: greater than 10000 nM for the first, 968 nM for the second. The second binds more tightly here.

Compared with CCCC(C)(C)c1ccc([C@H]2CCC[C@@H](O)C2)c(O)c1 [Bicyclic analogs III], CCC(C)(C)c1ccc([C@H]2CCC[C@@H](O)C2)c(O)c1 [Bicyclic analogs II] is higher in Ki: 3760 nM for the first, greater than 10000 nM for the second.

First: CCCCCc1cc(OC)c2c(c1)OC(C)(C)[C@@H]1CCC(CF)=C[C@@H]21 [THC, 11-F]
Second: C=C1CC[C@@H]2[C@@H](C1)c1c(OC)cc(CCCCC)cc1OC2(C)C [THC, 1-O-methyl-delta 9,11]
The Ki of the first is 7.7-fold lower: 107 nM for the first, 827 nM for the second.

First: CC(C)(C)c1ccc([C@H]2CCC[C@@H](O)C2)c(O)c1 [Bicyclic analogs I]
Second: CCCCCCCCC(C)(C)c1ccc([C@H]2CCC[C@@H](O)C2)c(O)c1 [Bicyclic analogs VIII]
The Ki of the first is higher: greater than 10000 nM for the first, 28.5 nM for the second.

First: CCCCCCC(C)(C)c1cc(OCc2ccc(-c3ccccc3)cc2)c2c(c1)OC(C)(C)[C@@H]1CCC(CO)=C[C@@H]21 [THC, 1-O-biphenylmethyl-delta 8]
Second: CCCCCCC(C)(C)c1cc(O)c2c(c1)OC(C)(C)[C@@H]1CCC(=O)C[C@@H]21 [(6aR,10aR)-3-(1,1-Dimethyl-heptyl)-1-hydroxy-6,6-dimethyl-6,6a,7,8,10,10a-hexahydro-benzo[c]chromen-9-one]
The Ki of the first is higher: greater than 10000 nM for the first, 22.3 nM for the second. The second binds more tightly here.

Compared with CC1=C[C@H]2c3c(O)cc(CCCCC(F)(F)F)cc3OC(C)(C)[C@@H]2CC1 [THC, 5'-F3], CC1=C[C@H]2c3c(O)cc(CCCCCF)cc3OC(C)(C)[C@@H]2CC1 [THC, 5'-F] is 2.9-fold higher in Ki: 19.9 nM for the first, 57 nM for the second.

Compared with CCCCCCCCCC(C)(C)c1ccc([C@H]2CCC[C@@H](O)C2)c(O)c1 [Bicyclic analogs IX], CCCCCCCCCCC(C)(C)c1ccc([C@H]2CCC[C@@H](O)C2)c(O)c1 [Bicyclic analogs X] is 2.3-fold higher in Ki: 163 nM for the first, 381 nM for the second.

Molecule C=C(C)C1CCC(C)=CC1c1c(O)cc(O)cc1CCCCC (stereo unspecified) [NSC_3060519] has a Ki greater than 10000 nM.

In the case of CCCCCCC(C)(C)c1ccc([C@@H]2C[C@H](O)CC[C@H]2C)c(O)c1 [Bicyclic analogs XI], the Ki is reported as 6.15 nM and 7.7 nM.
In the case of CCCCCc1cc(O)c2c(c1)OC(C)(C)C1CCC(C)(O)CC21 (stereo unspecified) [NSC_169742], the Ki is reported as 124 nM and 171 nM.

Source: BindingDB's records for PubMed 8474008 (Virginia Commonwealth University, 1993)
